Measurements: paper PMC5618429, “Kempopeptin C, a Novel Marine-Derived Serine Protease Inhibitor Targeting Invasive Breast Cancer” (Marine Drugs, 2017)
Like-named read-outs stand apart in the source and are kept apart here. Values belong to the compound of their own block, whether it stands above or below them.

Tests used:
trypsin = conditions: read-out: IC50 trypsin inhibition; cited from earlier work
plasmin = tested on: plasmin; set-up: method as in PMID 20405925; conditions: read-out: IC50 plasmin inhibition; cited from earlier work
[1] = tested on: CDCP1 cleavage in MDA-MB-231 cells; set-up: method as in PMID 22543582; conditions: positive control, through upregulation of PAI-1; cited from earlier work
elastase = target: elastase; set-up: method as in PMID 18693761; conditions: cited from earlier work
chymotrypsin = tested on: chymotrypsin; set-up: method as in PMID 18693761; conditions: cited from earlier work
[2] = target: T1, recombinant human matriptase (Homo sapiens, UniProt Q9Y5Y6); test: Matriptase inhibition assay; assay type: biochemical; conditions: mean ± SD, n = 3; 15-min preincubation; read-out: IC50 against matriptase
T1 construct: purchased R&D Systems 3946-SE-010
T1 sequence (Q9Y5Y6 615-855 limits assumed): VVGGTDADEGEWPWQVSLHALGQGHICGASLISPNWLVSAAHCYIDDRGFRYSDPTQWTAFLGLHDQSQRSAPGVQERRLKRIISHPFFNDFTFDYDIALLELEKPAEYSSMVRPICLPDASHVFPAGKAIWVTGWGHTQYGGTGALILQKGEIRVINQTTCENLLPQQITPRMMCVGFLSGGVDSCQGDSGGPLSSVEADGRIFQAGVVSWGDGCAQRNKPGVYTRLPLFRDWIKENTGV
Description: In matriptase inhibition assay, 50 µL of recombinant human matriptase (R&D Systems, Minneapolis, MN, USA; 3946-SE-010) ([…] prepared in assay buffer: 50 mM Tris, 50 mM NaCl, 0.01% Tween 20; pH 9.0) and 1 µL of different concentrations of inhibitors (2 and 3; half log dilutions prepared in DMSO) or the solvent control were pre-incubated at room temperature for 15 min. Following the incubation period, 50 µL of the 50 µM substrate solution (Boc-Gln-Ala-Arg-AMC) (R&D Systems, Minneapolis, MN, USA; ES014) were added to each well, and the enzyme activity was monitored by measuring the increase in fluorescence signal from the fluorescently-labeled substrate every 30 s for 30 min (Ex 380 nm, Em 460 nm) using the SpectraMax M5 plate reader (Molecular Devices).

[3] = target: T2, trypsin from porcine pancreas (Sus scrofa, UniProt P00761); test: Trypsin inhibition assay; assay type: biochemical; conditions: mean ± SD, n = 3; 30-min preincubation; read-out: IC50 against trypsin
T2 construct: purchased Sigma T0303; host or cells: porcine pancreas
Description: The trypsin inhibition assay was carried out at room temperature by incubating 10 µL of trypsin from porcine pancreas (T0303, Sigma, St. Louis, MO, USA) (100 µM prepared in assay buffer) with 39 µL of assay buffer (50 mM Tris-HCl, 100 mM NaCl, 1 mM CaCl2; pH 7.8) in the presence of 1 µL of different concentrations of inhibitors (2 and 3; half log dilutions prepared in DMSO) or the solvent control. After a 30-min incubation time, 50 µL of the 1.5 mM substrate: Nα-benzoyl-DL-arginine-4-nitroanilide (prepared as 2 mM stock solution in DMF and further diluted to 1.5 mM in assay buffer) were added to each well. The reaction was monitored by measuring the absorbance at 405 nm every 30 s for 30 min using SpectraMax M5 plate reader (Molecular Devices, Sunnyvale, CA, USA).

[4] = tested on: CDCP1 cleavage in MDA-MB-231 cells; test: Cleavage of CDCP1 in MDA-MB-231 cells (Western blot); assay type: cell-based; conditions: 72 h, different concentrations
Description: The experiment was performed by treating MDA-MB-231 cells with different concentrations of either kempopeptin B (2) or C (3) for 72 h (Figure 6A). Dexamethasone (Dex) 100 nM was used as a positive control.
Figure 6 The effect of kempopeptins B and C (2 and 3) on CDCP1 cleavage in MDA-MB-231. (A) MDA-MB-231 cells were treated for 72 h with different concentrations of the test compounds. Following 72 h, the lysates were collected and analyzed by Western blot. (B) MDA-MB-231 cells were treated at different time points with 100 µM of kempopeptin C (3). Following 6 h, 12 h and 24 h, the lysates were collected and analyzed by Western blot. Dexamethasone (Dex) was used as a positive control. (C) MDA-MB-231 cells treated for 24 h with different concentrations of 3 in the presence of 10 nM recombinant human matriptase. Cell lysates were harvested and analyzed by Western blot. (D) Densitometric analysis of the full-length, LMW of CDCP1 and actin bands in (C).
MDA-MB-231 cells (150,000 cells/well) were seeded in 12-well plates. After 24 h, the media were replaced, and cells were treated with different concentrations of inhibitors (2 or 3; prepared in DMSO), the solvent control or the positive control dexamethasone. Whole-cell protein lysates were collected after 6, 12, 24 and 72 h using PhosphoSafe lysis buffer (Novagen, Madison, USA) and the protein concentration measured using the BCA Protein Assay kit (Pierce; 23227; Thermofisher Scientific; Waltham, MA, USA). Twenty micrograms of protein were separated by SDS-PAGE, transferred to polyvinylidene difluoride (PVDF) membranes, probed with CDCP1 antibody (Cell Signaling; 4115S) and detected with SuperSignal West Femto Maximum Sensitivity Substrate (Pierce).

[5] = target: T3, plasmin from human plasma (Homo sapiens, UniProt P00747); test: Plasmin inhibition assay; assay type: biochemical; conditions: mean ± SD, n = 3; 30-min preincubation; read-out: IC50 against plasmin
T3 construct: purchased Sigma P1867; host or cells: human plasma
Description: The plasmin inhibition assay was carried out by incubating 5 µL of […] plasmin from human plasma (P1867, Sigma, St. Louis, MO, USA) with 1 µL of different concentrations of inhibitors (2 and 3; half log dilutions prepared in DMSO) or the solvent control in the presence of 89 µL assay buffer (0.05 M Tris-HCl, pH 8.9). After a 30-min incubation time, 5 µL of 1.7 mM substrate solution (N-p-Tosyl-D-Gly-Pro-Lys-4-nitroanilide acetate salt; prepared in assay buffer) were added to each well. The reaction was monitored by measuring the absorbance at 405 nm every 30 s for 30 min using the SpectraMax M5 plate reader (Molecular Devices).

[6] = Cell viability assay (MTT); assay type: cell-based; conditions: human, MDA-MB-231 breast cancer cells; MDA-MB-231, 48 h, all concentrations tested (32 µM to 320 pM)
Description: MDA-MB-231 cells were seeded in 96-well plates (10,000 cells/well). After 24 h of incubation, the cells were treated with different concentrations of kempopeptins B or C (2 or 3) or the solvent control (DMSO). Following 48 h of incubation, cell viability was measured using 3-(4,5-dimethylthiazol-2-yl)-2,5-diphenyltetrazolium bromide according to the manufacturer's instructions (Promega, Madison, WI, USA).
Effect of kempopeptins on the viability of MDA-MB-231 cells
Kempopeptin C Kempopeptin B
Figure S1. Effect of kempopeptins B and C (2) and (3) on the viability of MDA -MB-231 breast cancer cells.

T2 sequence (P00761 9-231): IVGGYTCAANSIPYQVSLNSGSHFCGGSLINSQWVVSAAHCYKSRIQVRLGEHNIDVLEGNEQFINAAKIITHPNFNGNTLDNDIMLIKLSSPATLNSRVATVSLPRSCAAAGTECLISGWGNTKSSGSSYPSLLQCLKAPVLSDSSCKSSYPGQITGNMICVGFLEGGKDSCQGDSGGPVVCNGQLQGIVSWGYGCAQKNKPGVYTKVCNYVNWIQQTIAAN
T3 sequence (P00747 581-810 limits assumed): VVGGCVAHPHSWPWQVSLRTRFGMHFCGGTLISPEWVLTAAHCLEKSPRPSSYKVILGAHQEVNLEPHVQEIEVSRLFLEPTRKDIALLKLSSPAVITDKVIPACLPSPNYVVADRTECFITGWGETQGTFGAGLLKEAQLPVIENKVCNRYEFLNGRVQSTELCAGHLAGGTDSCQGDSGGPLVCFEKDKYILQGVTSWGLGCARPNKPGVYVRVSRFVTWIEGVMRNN
T3 sequence (P00747 98-580 partner limits assumed): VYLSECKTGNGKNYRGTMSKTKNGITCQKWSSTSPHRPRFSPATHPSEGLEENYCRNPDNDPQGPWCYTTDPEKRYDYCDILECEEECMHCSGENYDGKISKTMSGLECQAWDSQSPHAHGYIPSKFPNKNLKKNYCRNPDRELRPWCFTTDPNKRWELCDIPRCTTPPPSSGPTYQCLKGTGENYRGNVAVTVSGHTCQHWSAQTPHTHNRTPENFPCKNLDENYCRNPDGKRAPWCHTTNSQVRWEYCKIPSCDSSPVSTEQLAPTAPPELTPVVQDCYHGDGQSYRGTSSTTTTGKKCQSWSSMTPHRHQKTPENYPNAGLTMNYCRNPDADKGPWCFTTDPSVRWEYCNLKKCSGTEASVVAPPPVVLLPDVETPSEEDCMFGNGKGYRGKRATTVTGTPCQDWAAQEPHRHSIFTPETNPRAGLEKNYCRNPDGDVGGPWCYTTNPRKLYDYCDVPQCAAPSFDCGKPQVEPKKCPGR

Compound: CC(C)C[C@@H](NC(=O)[C@H](O)COS(=O)(=O)O)C(=O)N[C@@H]1C(=O)N[C@@H](CCCNC(=N)N)C(=O)N[C@H]2CC[C@@H](O)N(C2=O)[C@@H](CC(C)C)C(=O)N(C)[C@@H](Cc2ccc(O)cc2)C(=O)N[C@@H](C(C)C)C(=O)O[C@@H]1C [Compound A90720A, A90720A]
- IC50 (trypsin): ~0.01 µM

Compound: CCCCCC(=O)N[C@@H](CCC(=O)O)C(=O)N[C@@H]1C(=O)N[C@@H](CCCNC(=N)N)C(=O)N[C@H]2CC[C@@H](O)N(C2=O)[C@@H](Cc2ccccc2)C(=O)N(C)[C@@H](Cc2ccc(O)cc2)C(=O)N[C@@H](C(C)C)C(=O)O[C@@H]1C [Cyanopeptolin 1020, cyanopeptolin 1020]
- IC50 (trypsin): 0.00067 µM
- IC50 (plasmin): ~0.49 µM

Compound: C[C@@H]1C[C@H]2[C@@H]3CCC4=CC(=O)C=C[C@]4(C)[C@@]3(F)[C@@H](O)C[C@]2(C)[C@@]1(O)C(=O)CO [Dexamethasone]
- Effect on cleavage of full-length CDCP1 [1]: blocks the cleavage of the full-length CDCP1

Compound: CC(=O)N1CCC[C@H]1C(=O)N[C@H](C(=O)N[C@@H]1C(=O)N[C@@H](CC(C)C)C(=O)N[C@H]2CC[C@@H](O)N(C2=O)[C@@H](Cc2ccccc2)C(=O)N(C)[C@@H](Cc2ccc(O)cc2)C(=O)N[C@@H](C(C)C)C(=O)O[C@@H]1C)[C@@H](C)O [Kempopeptin A, kempopeptin A]
- IC50 (elastase; read-out: IC50 elastase inhibition): 0.32 µM
- IC50 (chymotrypsin; read-out: IC50 chymotrypsin inhibition): 2.6 µM

- IC50 [2]: 1.83 ± 0.19 µM
- IC50 [3]: 1.49 ± 0.18 µM
- IC50 [5]: 1.05 ± 0.19 µM
Compound: CCCC(=O)N[C@H](C(=O)N[C@@H]1C(=O)N[C@@H](CCCCN)C(=O)N[C@H]2CC[C@@H](O)N(C2=O)[C@@H]([C@@H](C)CC)C(=O)N(C)[C@@H](Cc2ccc(OC)c(Br)c2)C(=O)N[C@@H](C(C)C)C(=O)O[C@@H]1C)C(C)C [Kempopeptin B, kempopeptin B]
- IC50 (elastase; read-out: IC50 against elastase): > 67 µM
- Inhibition of CDCP1 cleavage in MDA-MB-231 [4]: No inhibition of CDCP1 cleavage was observed
- IC50 (chymotrypsin; read-out: IC50 against chymotrypsin): > 67 µM
- viability at 48 h [6]: > 90%

Compound: CCCC(=O)N[C@@H](CCC(N)=O)C(=O)N[C@@H]1C(=O)N[C@@H](CCCNC(N)=O)C(=O)N[C@H]2CC[C@@H](O)N(C2=O)[C@@H]([C@@H](C)CC)C(=O)N(C)[C@@H](Cc2ccc(OC)c(Br)c2)C(=O)N[C@@H](C(C)C)C(=O)O[C@@H]1C [Symplocamide A, symplocamide A]
- IC50 (trypsin): ~80 µM
